Eight molecules from patent publication US7612064B2, “Sulfopyrroles” (Takeda Pharmaceutical Company Limited, priority 2003, dated 2009) can be followed below.

As usually defined, the IC50 is the midpoint of a concentration-inhibition curve. The low end stands for inhibition by little substance, the high end for a need for much substance.

For assay [1], the system named is MRC5. Kind of assay: MTS proliferation assay. The format is cell-based. The settings on record: MRC5, 72 h. As for the experimental part:
(§1) The assay is performed in 96 well tissue culture plates. […] The test compounds are added in 20 μl complete medium containing max 5% DMSO. The final compound concentrations in the assays are 10 μM, 3 μM, 1 μM and 0.3 μM, respectively. The assay plates are incubated for 72 h at culture conditions. The MTS reagent is prepared according to the manufacturer's protocol (Promega G1111). 20 μl MTS reagent are added to each well, the assay plates are quickly spun and incubated for another 3 h at culture conditions. Subsequently, the plates are shortly shacked and absorption measured with a microplate-reader at 492 nm.
(In general: Tetrazolium assays rely on reduction of a dye to a coloured formazan, in cell work by metabolically active cells.)

A short description of assay [2]: Hoechst 33342 nuclear staining.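 For all read-outs here: apoptotic nuclei scored 0 none 1 weak under 50% of cells 2 strong over 50% of cells.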 The class given is cell-based. As to conditions: 24 h or 48 h incubation; for Hoechst 33342 nuclear staining score, HeLa: HeLa cells; for Hoechst 33342 nuclear staining score, Jurkat: Jurkat cells; for Hoechst 33342 nuclear staining score, H460: H460 cells; for Hoechst 33342 nuclear staining score, Jily: Jily cells; for Hoechst 33342 nuclear staining score, MRC5: MRC5 cells. How it is done: This assay is performed in 96 well tissue culture plates. Appropriate number of cells (adherent cells: 3-5*10^3, suspension cells: 8-10*10^3) are being seeded out in 80 μl complete medium. Adherent cells are incubated for 24 h for proper spreading out before addition of test compounds while suspension cells are immediately treated with test compounds after seeding out. The test compounds are added in 20 μl complete medium containing max 5% DMSO. […] […] The assay plates are then further incubated for 30 min and subsequently analyzed with a standard inverted fluorescence microscope.
The readout allows the determination of the fraction of apoptotic nuclei as well as other morphological criteria specific for apoptosis as a function of the treatment. The following scores are used: 0 relating to no activity, 1 relating to weak activity comprising less than 50% of the cells and score 2 relating to strong activity comprising more than 50% of the cells.

Assay [3] concerns HeLa. The experiment in a line: MTS proliferation assay. The class given is cell-based, human. The settings on record: 72 h. As for the experimental part:
as §1

Assay [4] has as its system Jurkat. The experiment in a line: MTS proliferation assay. The class given is cell-based, human. As to conditions: 72 h. As for the experimental part: as §1
Where [5] appears, read: conc 0.3 (final concentrations in μM).
Where [6] appears, read: conc 1 (final concentrations in μM).
[7] abbreviates: conc 3 (final concentrations in μM).
Setting [8] is: conc 10 (final concentrations in μM).
The mark [9] stands for this setting: conc 0.1 (final concentrations in μM).

Some results are limits rather than exact numbers.

As to `Cc1ccc(S(=O)(=O)n2cc(-c3cncnc3)cc2-c2ccc3c(c2)OCO3)cc1` [Example 46], the IC50 in assay [1], in assay [3] and in assay [4] was above 1 µM throughout. In addition, the “Hoechst 33342 nuclear staining score, HeLa” value in assay [2] (setting [5]), in assay [2] (setting [6]), in assay [2] (setting [7]) and in assay [2] (setting [8]) was 0 throughout. The “Hoechst 33342 nuclear staining score, Jurkat” value in assay [2] (setting [5]), in assay [2] (setting [6]), in assay [2] (setting [7]) and in assay [2] (setting [8]) was 0 throughout.
`Cc1ccc(S(=O)(=O)n2cc(CNc3ccc(N4CCOCC4)c(Cl)c3)cc2-c2ccc3c(c2)OCO3)cc1` [Example 38]: the IC50 in assay [1], in assay [3] and in assay [4] was above 1 µM in each case. The “Hoechst 33342 nuclear staining score, HeLa” value in assay [2] (setting [5]), in assay [2] (setting [6]), in assay [2] (setting [7]) and in assay [2] (setting [8]) was 0 throughout. The “Hoechst 33342 nuclear staining score, Jurkat” value in assay [2] (setting [5]), in assay [2] (setting [6]), in assay [2] (setting [7]) and in assay [2] (setting [8]) was 0 in each case.
In the case of `Cc1ccc(S(=O)(=O)n2cc(-c3ccc(C#N)cc3)cc2-c2cccs2)cc1` [Example 54], in assay [1], the half-maximal inhibitory concentration (IC50) is above 1 µM. For the same molecule, in assay [2] (setting [9]), the “Hoechst 33342 nuclear staining score, H460” value was 0; the “Hoechst 33342 nuclear staining score, HeLa” value is 0; the “Hoechst 33342 nuclear staining score, Jily” value turned out to be 0; the “Hoechst 33342 nuclear staining score, Jurkat” value is recorded as 0. In addition, in assay [2] (setting [9]), the “Hoechst 33342 nuclear staining score, MRC5” value was determined as 0 and the “Hoechst 33342 nuclear staining score, PBLs” value is given as 0. Moreover, in assay [2] (setting [5]), the “Hoechst 33342 nuclear staining score, H460” value is listed as 0; the “Hoechst 33342 nuclear staining score, HeLa” value was determined as 0; the “Hoechst 33342 nuclear staining score, Jily” value amounted to 0; the “Hoechst 33342 nuclear staining score, Jurkat” value is reported as 0. In assay [2] (setting [5]), the “Hoechst 33342 nuclear staining score, MRC5” value was determined as 0 and the “Hoechst 33342 nuclear staining score, PBLs” value was determined as 0. Further, in assay [2] (setting [6]), the “Hoechst 33342 nuclear staining score, H460” value is reported as 0; the “Hoechst 33342 nuclear staining score, HeLa” value is given as 0; the “Hoechst 33342 nuclear staining score, Jily” value is 0; the “Hoechst 33342 nuclear staining score, Jurkat” value came out at 0. In assay [2] (setting [6]), the “Hoechst 33342 nuclear staining score, MRC5” value was determined as 0 and the “Hoechst 33342 nuclear staining score, PBLs” value is 0. Further, in assay [2] (setting [7]), the “Hoechst 33342 nuclear staining score, H460” value was 0; the “Hoechst 33342 nuclear staining score, HeLa” value was found to be 0; the “Hoechst 33342 nuclear staining score, Jily” value is 0; the “Hoechst 33342 nuclear staining score, Jurkat” value was determined as 0. In assay [2] (setting [7]), the “Hoechst 33342 nuclear staining score, MRC5” value came to 0 and the “Hoechst 33342 nuclear staining score, PBLs” value stood at 0. For the same molecule, the IC50 in assay [3] was above 1 µM. This molecule yielded an IC50 in assay [4] below 1 µM.
For the molecule `Cc1ccc(S(=O)(=O)n2cc(CNCCCN3CCCC3)cc2-c2ccc3c(c2)OCO3)cc1` [Example 22], the IC50 in assay [1], in assay [3] and in assay [4] was above 1 µM in each case. Moreover, the “Hoechst 33342 nuclear staining score, HeLa” value in assay [2] (setting [9]), in assay [2] (setting [5]), in assay [2] (setting [6]) and in assay [2] (setting [7]) was 0 throughout. In addition, the “Hoechst 33342 nuclear staining score, Jurkat” value in assay [2] (setting [9]), in assay [2] (setting [5]), in assay [2] (setting [6]) and in assay [2] (setting [7]) was 0 in each case.
With `Cc1ccc(S(=O)(=O)n2cc(-c3ccc(C(N)=O)cc3)cc2-c2cccs2)cc1` [Example 52], the IC50 in assay [1], in assay [3] and in assay [4] was above 1 µM in each case. In addition, the “Hoechst 33342 nuclear staining score, HeLa” value in assay [2] (setting [9]), in assay [2] (setting [5]), in assay [2] (setting [6]) and in assay [2] (setting [7]) was 0 throughout. For the same molecule, the “Hoechst 33342 nuclear staining score, Jurkat” value in assay [2] (setting [9]), in assay [2] (setting [5]), in assay [2] (setting [6]) and in assay [2] (setting [7]) was 0 each time.
In the case of `CCN(CC)CCN(C)Cc1cc(-c2ccc3c(c2)OCO3)n(S(=O)(=O)c2ccc(C)cc2)c1` [Example 19], the IC50 in assay [1], in assay [3] and in assay [4] was above 1 µM each time. Besides, the “Hoechst 33342 nuclear staining score, HeLa” value in assay [2] (setting [9]), in assay [2] (setting [5]), in assay [2] (setting [6]) and in assay [2] (setting [7]) was 0 in each case. Moreover, the “Hoechst 33342 nuclear staining score, Jurkat” value in assay [2] (setting [9]), in assay [2] (setting [5]), in assay [2] (setting [6]) and in assay [2] (setting [7]) was 0 each time.
Turning to `Cc1ccc(S(=O)(=O)n2cc(CN(C)CCN(C)C)cc2-c2ccc3c(c2)OCO3)cc1` [Example 31], the IC50 in assay [1], in assay [3] and in assay [4] was above 1 µM throughout. The “Hoechst 33342 nuclear staining score, HeLa” value in assay [2] (setting [9]), in assay [2] (setting [5]), in assay [2] (setting [6]) and in assay [2] (setting [7]) was 0 each time. Further, the “Hoechst 33342 nuclear staining score, Jurkat” value in assay [2] (setting [9]), in assay [2] (setting [5]), in assay [2] (setting [6]) and in assay [2] (setting [7]) was 0 in each case.
Turning to `Cc1ccc(S(=O)(=O)n2cc(CN(C)C3CCN(C)CC3)cc2-c2ccc3c(c2)OCO3)cc1` [Example 26], the 50% inhibitory concentration (IC50) in assay [1], in assay [3] and in assay [4] was above 1 µM each time. The “Hoechst 33342 nuclear staining score, HeLa” value in assay [2] (setting [9]), in assay [2] (setting [5]), in assay [2] (setting [6]) and in assay [2] (setting [7]) was 0 throughout. Further, the “Hoechst 33342 nuclear staining score, Jurkat” value in assay [2] (setting [9]), in assay [2] (setting [5]), in assay [2] (setting [6]) and in assay [2] (setting [7]) was 0 throughout.
